Experimental data taken from patent publication US20150296786A1, “SYNERGISTIC COMBINATION OF A ZOXAMIDE COMPOUND AND ONE OF DCOIT OR OIT FOR DRY FILM PROTECTION” (ROHM AND HAAS COMPANY, priority 2012, published 2015).

Experiments:
Chlorella sp. ATCC 7516 = assay: Algal efficacy testing of dry paint films (modified ASTM 5589, 6-well plates); type: cell-based; conditions: 504 h, 3 weeks, visible algal growth vs blank, pass level ≧75%; for inhibition at 1000 ppm: total conc 1000 ppm in paint
Method: (§1) Sample preparation for antimicrobial testing was performed as follows:
(§2) Slurries containing 33% antimicrobial active ingredient (Zoxamide) were post added to a white, acrylic/silicone based outdoor paint free of biocides to give a total active ingredient concentration of 10000 and 1000 ppm respectively. KATHON™ 893T (100% OIT) and ROCIMA™ 200 (20% DCOIT) were post added to a white, acrylic/silicone based outdoor paint free of biocides to give a total active ingredient concentration of 10000 and 1000 ppm respectively. These paints were then diluted with an antimicrobial free acrylic/silicone based paint and mixed to prepare targeted concentrations of antimicrobial compounds for the testing. The total biocides concentrations tested were 125, 250, 500, 1000, 2000 and 5000 ppm. After biocides addition or dilution, the paints were mixed 90 seconds with the horse power shaker (AXEL 75M3372/Agitateur SO-10MI) until uniformity was achieved. Paints containing different antimicrobial compounds at the same levels were mixed together in order to obtain the desired ratio of antimicrobial compounds. After one day, the paints were applied to Schleicher & Schuell filter paper at 280μm wet film thickness and dried for 3 days at room temperature avoiding direct exposure to sunlight. Square discs (1.6 cm×1.6 cm) were cut out from each panel and were used as the substrate for algal efficacy tests. This sample size allowed for an agar border when the sample disc was placed into the well of the test plate.
(§3) Algal efficacy was tested according to modified ASTM 5589 which is a standard accelerated test method for determining resistance of various coatings (including paints) to algal defacement. To accommodate for high-throughput screening, this method was scaled down from petri dishes to 6-well plates. Bold Modified Basal Freshwater Nutrient Solution was used as growth medium. A single coated filter paper coupon was placed with a pair of sterile forceps at the center of the agar plug (on top) with the painted surface facing upwards. Algal inoculums were prepared by mixing equal concentrations (1×10^6 cfu/ml) and equal volumes of exponentially growing algae cultures.
(§4) Each well that contains a tested coupon was inoculated with 1750 μl of algal suspensions (1×10^6 cfu/ml) making sure that the whole surface (paint film as well as the agar surrounding it) was evenly covered. The plates were incubated at room temp (21° C.-25° C.) with cyclic exposure to light and dark phases, for a period of three weeks.
(§5) At the end of the three week incubation period, the samples were scored for percent inhibition regarding visible algal growth compared to the blank sample (0% inhibition).
(§6) The Synergy Index calculation was performed as follows.
(§7) The SI is calculated based on F. C. Kull et.
(§8) SI value of <1 in the formula indicates a synergism of the blended biocides exists.
(§9) The minimal targeted inhibition was set at 75%, meaning a coupon with at least 75% algal growth inhibition was considered as a pass.

[1] = tested on: Stichococcus bacillaris SAG 379-1a / CCAP 379/1a; assay: as above; type: cell-based; conditions: 504 h, 3 weeks, visible algal growth vs blank, pass level ≧75%
Method: as §1, §2, §3, §4, §5, §6, §7, §8, §9

CCCCCCCCn1sc(Cl)c(Cl)c1=O [DCOIT, 4,5-dichloro-2-n-octyl-4-isothiazolin-3-one]
inhibition at 1000 ppm (Chlorella sp. ATCC 7516): 85%
inhibition at 1000 ppm ([1]; total conc 1000 ppm in paint): 85%

CCCCCCCCn1sccc1=O [OIT, 2-n-octyl-4-isothiazolin-3-one]
inhibition at 1000 ppm (Chlorella sp. ATCC 7516): 95%

CCC(C)(NC(=O)c1cc(Cl)c(C)c(Cl)c1)C(=O)CCl (centres unmarked) [Zoxamide]
inhibition at 5000 ppm (Chlorella sp. ATCC 7516; total conc 5000 ppm in paint): 60%
inhibition at 5000 ppm ([1]; total conc 5000 ppm in paint): 45%
